Legend:
Portulaca oleracea = test: Post-emergence herbicidal activity test (stem and leaf spray, pot culture); type: in vivo; conditions: 3 weeks after spraying
How it was run: (§1)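 Read-out: fresh weight control rate 3 weeks post-spray, graded 5 (≥85%) down to 0 (<5%). Foliar spray at 2–3-leaf stage; rates 10, 5, 2.5 g/mu; acetone + Tween 80 formulation with methyl oleate synergist; greenhouse 20–30 °C, natural light.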

Setaria viridis = test: as above; type: in vivo; conditions: 3 weeks after spraying
How it was run: as §1

Amaranthus retroflexus = test: as above; type: in vivo; conditions: 3 weeks after spraying
How it was run: as §1

Abutilon theophrasti = test: as above; type: in vivo; conditions: 3 weeks after spraying
How it was run: as §1

Echinochloa crusgalli = test: as above; type: in vivo; conditions: 3 weeks after spraying
How it was run: as §1

Trifoliumre pensL. = test: as above; type: in vivo; conditions: 3 weeks after spraying
How it was run: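 Pot-grown weeds in loam (pH 7), greenhouse at 20–30 °C, sprayed once post-emergence at the 2–3-leaf stage. Compound in acetone with Tween 80 plus methyl oleate oil (1.5 L/ha), applied at 10, 5 and 2.5 g/mu by spray tower. Effect scored 3 weeks after spraying, averaged over three repeats.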

## Cc1ccc(C(=O)COc2ccc(N3C(=O)C4=C(CCCC4)C3=O)c(F)c2)cc1 [Compound C15, 2-(2-fluoro-4-(2-oxo-2-(4-tolyl)ethoxy)phenyl)-4,5,6,7-tetrahydro-1H-isoindole-1,3(2H)-dione]
other
  melting point: 144 to 146 °C
Portulaca oleracea; dosage 2.5 g/mu
  Post-emergence herbicidal activity, P. oleracea (grade): 5 (Grade 5: the growth control rate is greater than or equal to 85%)
Portulaca oleracea; dosage 5 g/mu
  Post-emergence herbicidal activity, P. oleracea (grade): 5 (Grade 5: the growth control rate is greater than or equal to 85%)
Portulaca oleracea; dosage 10 g/mu
  Post-emergence herbicidal activity, P. oleracea (grade): 5 (Grade 5: the growth control rate is greater than or equal to 85%)
Setaria viridis; dosage 2.5 g/mu
  Post-emergence herbicidal activity, S. viridis (grade): 2 (Grade 2: the growth control rate is greater than or equal to 20% and less than 40%)
Setaria viridis; dosage 5 g/mu
  Post-emergence herbicidal activity, S. viridis (grade): 3 (Grade 3: the growth control rate is greater than or equal to 40% and less than 60%)
Setaria viridis; dosage 10 g/mu
  Post-emergence herbicidal activity, S. viridis (grade): 4 (Grade 4: the growth control rate is greater than or equal to 60% and less than 85%)
Amaranthus retroflexus; dosage 2.5 g/mu
  Post-emergence herbicidal activity, A. retroflexus (grade): 5 (Grade 5: the growth control rate is greater than or equal to 85%)
Amaranthus retroflexus; dosage 5 g/mu
  Post-emergence herbicidal activity, A. retroflexus (grade): 5 (Grade 5: the growth control rate is greater than or equal to 85%)
Amaranthus retroflexus; dosage 10 g/mu
  Post-emergence herbicidal activity, A. retroflexus (grade): 5 (Grade 5: the growth control rate is greater than or equal to 85%)
Abutilon theophrasti; dosage 2.5 g/mu
  Post-emergence herbicidal activity, A. theophrasti (grade): 5 (Grade 5: the growth control rate is greater than or equal to 85%)
Abutilon theophrasti; dosage 5 g/mu
  Post-emergence herbicidal activity, A. theophrasti (grade): 5 (Grade 5: the growth control rate is greater than or equal to 85%)
Abutilon theophrasti; dosage 10 g/mu
  Post-emergence herbicidal activity, A. theophrasti (grade): 5 (Grade 5: the growth control rate is greater than or equal to 85%)
Echinochloa crusgalli; dosage 2.5 g/mu
  Post-emergence herbicidal activity, E. crusgalli (grade): 1 (Grade 1: the growth control rate is greater than or equal to 5% and less than 20%)
Echinochloa crusgalli; dosage 5 g/mu
  Post-emergence herbicidal activity, E. crusgalli (grade): 2 (Grade 2: the growth control rate is greater than or equal to 20% and less than 40%)
Echinochloa crusgalli; dosage 10 g/mu
  Post-emergence herbicidal activity, E. crusgalli (grade): 3 (Grade 3: the growth control rate is greater than or equal to 40% and less than 60%)
Trifoliumre pensL.; dosage 2.5 g/mu
  Post-emergence herbicidal activity, Trifoliumre pensL. (grade): 5 (Grade 5: the growth control rate is greater than or equal to 85%)
Trifoliumre pensL.; dosage 5 g/mu
  Post-emergence herbicidal activity, Trifoliumre pensL. (grade): 5 (Grade 5: the growth control rate is greater than or equal to 85%)
Trifoliumre pensL.; dosage 10 g/mu
  Post-emergence herbicidal activity, Trifoliumre pensL. (grade): 5 (Grade 5: the growth control rate is greater than or equal to 85%)

## COc1ccc(C(=O)COc2cc(N3C(=O)C4=C(CCCC4)C3=O)c(F)cc2Cl)cc1 [Compound C13, 2-(4-chloro-2-fluoro-5-(2-oxo-2-(4-methoxyphenyl)ethoxy)phenyl)-4,5,6,7-tetrahydro-1H-isoindole-1,3(2H)-dione]
other
  melting point: 151 to 153 °C
Portulaca oleracea; dosage 2.5 g/mu
  Post-emergence herbicidal activity, P. oleracea (grade): 5 (Grade 5: the growth control rate is greater than or equal to 85%)
Portulaca oleracea; dosage 5 g/mu
  Post-emergence herbicidal activity, P. oleracea (grade): 5 (Grade 5: the growth control rate is greater than or equal to 85%)
Portulaca oleracea; dosage 10 g/mu
  Post-emergence herbicidal activity, P. oleracea (grade): 5 (Grade 5: the growth control rate is greater than or equal to 85%)
Setaria viridis; dosage 2.5 g/mu
  Post-emergence herbicidal activity, S. viridis (grade): 2 (Grade 2: the growth control rate is greater than or equal to 20% and less than 40%)
Setaria viridis; dosage 5 g/mu
  Post-emergence herbicidal activity, S. viridis (grade): 3 (Grade 3: the growth control rate is greater than or equal to 40% and less than 60%)
Setaria viridis; dosage 10 g/mu
  Post-emergence herbicidal activity, S. viridis (grade): 4 (Grade 4: the growth control rate is greater than or equal to 60% and less than 85%)
Amaranthus retroflexus; dosage 2.5 g/mu
  Post-emergence herbicidal activity, A. retroflexus (grade): 5 (Grade 5: the growth control rate is greater than or equal to 85%)
Amaranthus retroflexus; dosage 5 g/mu
  Post-emergence herbicidal activity, A. retroflexus (grade): 5 (Grade 5: the growth control rate is greater than or equal to 85%)
Amaranthus retroflexus; dosage 10 g/mu
  Post-emergence herbicidal activity, A. retroflexus (grade): 5 (Grade 5: the growth control rate is greater than or equal to 85%)
Abutilon theophrasti; dosage 2.5 g/mu
  Post-emergence herbicidal activity, A. theophrasti (grade): 5 (Grade 5: the growth control rate is greater than or equal to 85%)
Abutilon theophrasti; dosage 5 g/mu
  Post-emergence herbicidal activity, A. theophrasti (grade): 5 (Grade 5: the growth control rate is greater than or equal to 85%)
Abutilon theophrasti; dosage 10 g/mu
  Post-emergence herbicidal activity, A. theophrasti (grade): 5 (Grade 5: the growth control rate is greater than or equal to 85%)
Echinochloa crusgalli; dosage 2.5 g/mu
  Post-emergence herbicidal activity, E. crusgalli (grade): 1 (Grade 1: the growth control rate is greater than or equal to 5% and less than 20%)
Echinochloa crusgalli; dosage 5 g/mu
  Post-emergence herbicidal activity, E. crusgalli (grade): 2 (Grade 2: the growth control rate is greater than or equal to 20% and less than 40%)
Echinochloa crusgalli; dosage 10 g/mu
  Post-emergence herbicidal activity, E. crusgalli (grade): 3 (Grade 3: the growth control rate is greater than or equal to 40% and less than 60%)
Trifoliumre pensL.; dosage 2.5 g/mu
  Post-emergence herbicidal activity, Trifoliumre pensL. (grade): 5 (Grade 5: the growth control rate is greater than or equal to 85%)
Trifoliumre pensL.; dosage 5 g/mu
  Post-emergence herbicidal activity, Trifoliumre pensL. (grade): 5 (Grade 5: the growth control rate is greater than or equal to 85%)
Trifoliumre pensL.; dosage 10 g/mu
  Post-emergence herbicidal activity, Trifoliumre pensL. (grade): 5 (Grade 5: the growth control rate is greater than or equal to 85%)

## O=C(COC(=O)c1cc(N2C(=O)C3=C(CCCC3)C2=O)c(F)cc1Cl)c1ccccc1 [Compound E2, 2-oxo-2-phenylethyl-2-chloro-5-(1,3-dioxo-1,3,4,5,6,7-hexahydro-2H-isoindole-2-yl)-4-fluorobenzoate]
other
  melting point: 133 to 136 °C
Portulaca oleracea; dosage 10 g/mu
  Post-emergence herbicidal activity, P. oleracea (grade): 5 (Grade 5: the growth control rate is greater than or equal to 85%)
Setaria viridis; dosage 10 g/mu
  Post-emergence herbicidal activity, S. viridis (grade): 4 (Grade 4: the growth control rate is greater than or equal to 60% and less than 85%)
Amaranthus retroflexus; dosage 10 g/mu
  Post-emergence herbicidal activity, A. retroflexus (grade): 5 (Grade 5: the growth control rate is greater than or equal to 85%)
Abutilon theophrasti; dosage 10 g/mu
  Post-emergence herbicidal activity, A. theophrasti (grade): 5 (Grade 5: the growth control rate is greater than or equal to 85%)
Echinochloa crusgalli; dosage 10 g/mu
  Post-emergence herbicidal activity, E. crusgalli (grade): 3 (Grade 3: the growth control rate is greater than or equal to 40% and less than 60%)
Trifoliumre pensL.; dosage 10 g/mu
  Post-emergence herbicidal activity, Trifoliumre pensL. (grade): 4 (Grade 4: the growth control rate is greater than or equal to 60% and less than 85%)

## O=C1C2=C(CCCC2)C(=O)N1c1cc(OCc2nc(-c3ccc(OC(F)(F)F)cc3)no2)c(Cl)cc1F [Compound A20]
Portulaca oleracea; dosage 2.5 g/mu
  Post-emergence herbicidal activity, P. oleracea (grade): 4 (Grade 4: the growth control rate is greater than or equal to 60% and less than 85%)
Portulaca oleracea; dosage 5 g/mu
  Post-emergence herbicidal activity, P. oleracea (grade): 5 (Grade 5: the growth control rate is greater than or equal to 85%)
Portulaca oleracea; dosage 10 g/mu
  Post-emergence herbicidal activity, P. oleracea (grade): 5 (Grade 5: the growth control rate is greater than or equal to 85%)
Setaria viridis; dosage 2.5 g/mu
  Post-emergence herbicidal activity, S. viridis (grade): 2 (Grade 2: the growth control rate is greater than or equal to 20% and less than 40%)
Setaria viridis; dosage 5 g/mu
  Post-emergence herbicidal activity, S. viridis (grade): 3 (Grade 3: the growth control rate is greater than or equal to 40% and less than 60%)
Setaria viridis; dosage 10 g/mu
  Post-emergence herbicidal activity, S. viridis (grade): 4 (Grade 4: the growth control rate is greater than or equal to 60% and less than 85%)
Amaranthus retroflexus; dosage 2.5 g/mu
  Post-emergence herbicidal activity, A. retroflexus (grade): 5 (Grade 5: the growth control rate is greater than or equal to 85%)
Amaranthus retroflexus; dosage 5 g/mu
  Post-emergence herbicidal activity, A. retroflexus (grade): 5 (Grade 5: the growth control rate is greater than or equal to 85%)
Amaranthus retroflexus; dosage 10 g/mu
  Post-emergence herbicidal activity, A. retroflexus (grade): 5 (Grade 5: the growth control rate is greater than or equal to 85%)
Abutilon theophrasti; dosage 2.5 g/mu
  Post-emergence herbicidal activity, A. theophrasti (grade): 5 (Grade 5: the growth control rate is greater than or equal to 85%)
Abutilon theophrasti; dosage 5 g/mu
  Post-emergence herbicidal activity, A. theophrasti (grade): 5 (Grade 5: the growth control rate is greater than or equal to 85%)
Abutilon theophrasti; dosage 10 g/mu
  Post-emergence herbicidal activity, A. theophrasti (grade): 5 (Grade 5: the growth control rate is greater than or equal to 85%)
Echinochloa crusgalli; dosage 2.5 g/mu
  Post-emergence herbicidal activity, E. crusgalli (grade): 1 (Grade 1: the growth control rate is greater than or equal to 5% and less than 20%)
Echinochloa crusgalli; dosage 5 g/mu
  Post-emergence herbicidal activity, E. crusgalli (grade): 2 (Grade 2: the growth control rate is greater than or equal to 20% and less than 40%)
Echinochloa crusgalli; dosage 10 g/mu
  Post-emergence herbicidal activity, E. crusgalli (grade): 3 (Grade 3: the growth control rate is greater than or equal to 40% and less than 60%)
Trifoliumre pensL.; dosage 2.5 g/mu
  Post-emergence herbicidal activity, Trifoliumre pensL. (grade): 4 (Grade 4: the growth control rate is greater than or equal to 60% and less than 85%)
Trifoliumre pensL.; dosage 5 g/mu
  Post-emergence herbicidal activity, Trifoliumre pensL. (grade): 5 (Grade 5: the growth control rate is greater than or equal to 85%)
Trifoliumre pensL.; dosage 10 g/mu
  Post-emergence herbicidal activity, Trifoliumre pensL. (grade): 5 (Grade 5: the growth control rate is greater than or equal to 85%)

Reference: patent US20240300932A1, “N-PHENYLIMINE DERIVATIVE AND PREPARATION METHOD AND USE THEREOF” (Guizhou University, priority 2023, published 2024)
